The record followed here is patent EP4741383A1, “COMPOUND AND USE THEREOF AS ANTI-CANCER DRUG” (Tyligand Bioscience (Shanghai) Limited, priority 2023, dated 2025).

SMILES strings stand for the structures. A value given as a limit tells only on which side of the number the result lay.

One test concerns MV4-11. In words: CellTiter-Glo cell proliferation inhibition, MV4-11. In kind it is cell-based, human. As to conditions: Homo sapiens; MV4-11 cells, 72 hours, CellTiter-Glo; read-out: IC50 (µM) M V4-11. The text has this:
(§1) In this study, the CellTiter-Glo® Luminescent Cell Viability Assay kit from Promega was used to evaluate the inhibitory effects of the disclosed compounds on the proliferation of cell lines KYSE520 (a human esophageal squamous cell carcinoma cell line dependent on SHP2 for growth), MeWo (a human malignant melanoma cell line), and MV4-11 (an RTK-mutant human acute monocytic leukemia cell line).
Using essentially the same experimental materials, MV4-11 cells (Nanjing Cobio Biotechnology Co., Ltd., Catalog #CBP60522) were treated similarly: when thawing the cells, the cryovial was rapidly shaken in a 37 °C water bath to thaw within 1 minute. The thawed cell suspension was mixed with IMDM culture medium containing 10% FBS (HyClone, Catalog #SH30228.01), centrifuged at 1000 rpm for 7 minutes, and the supernatant was discarded. The cell pellet was resuspended in 5 mL of complete culture medium (IMDM medium containing 10% FBS) placed in a cell culture flask with 25 cm^2 of bottom area, and cultured in a cell culture incubator at 37 °C, 95% humidity, and 5% CO2. Cell passaging was performed when the cell density reached approximately 10^6 cells/mL. During cell passaging, the old cell suspension was thoroughly mixed, 1/5 of the cell suspension was retained, and 4 mL of new complete culture medium was added. After thorough mixing, the cells were placed back in the cell culture incubator for further culture. Cell plating was performed when the cell density again reached approximately 10^6 cells/mL. During cell plating, following the cell passage method, 1/5 of the cell suspension was retained for continued culture, and the remaining 4/5 of the cell suspension was placed in a 15 mL centrifuge tube. Cell viability was determined using the trypan blue exclusion method to ensure that cell viability was above 90%. A cell suspension with a density of 1.11 × 10^5 viable cells/mL was prepared using complete culture medium. 90 µL of the cell suspension was added to a 96-well cell culture plate, resulting in a cell density of 10000 viable cells/well. A control group without cells and without compounds, containing only complete culture medium (i.e., culture medium control) and a control group without compounds but containing cells (i.e., cell control) were set up. The cell plate was incubated overnight in the cell culture incubator. First, a 10 mM stock solution of the compound (Example compound and positive control compound 11a-1) in DMSO was serially diluted with DMSO at a 3-fold dilution, down to the 9th concentrations. A 10th concentration containing only DMSO (without the compound) was also prepared as a control. Then, the DMSO solutions containing different concentrations of the compound were diluted 100-fold with complete culture medium, resulting in a DMSO concentration of 1% in each solution. Finally, 10 µL of each solution was added to the corresponding wells of a cell culture plate, resulting in an initial compound concentration of 10 µM, with a 3-fold dilution between adjacent concentrations, and a DMSO concentration of 0.1% in the cell culture plate. The cell plate was then incubated in a cell culture incubator for 72 hours.
For endpoint detection, CellTiter-Glo reagent (Promega, catalog number #G7573, CellTiter-Glo® Luminescent Cell Viability Assay Kit) was melt and each cell plate was moved to room temperature for equilibration for 30 minutes. 75 µL (KYSE520 cells) or 50 µL (MeWo cells and MV 4-11 cells) of CellTiter-Glo was added to each well of the corresponding cell plate. The plates were shaken on a track-mounted shaker for 2 minutes to fully lyse the cells. The cell plates were kept at room temperature for 8 minutes to stabilize the luminescence signal. A multi-mode microplate reader (PerkinEImer, Envision 2105 Multimode plate Read) was used to full-wavelength scan the luminescence value of each well. […]
For `O=C(Nc1ccc(-c2cc3cc(F)c(-c4nnn[nH]4)cc3n2C2CCC2)cc1)C(=O)Nc1ccc(N2CCC(C3COC3)CC2)cc1` [Example 20], the IC50 was above 10 µM.
With `CC1(n2c(-c3ccc(NC(=O)C(=O)Nc4ccc(N5CCC6(CCOC6)CC5)cc4)cc3)cc3cc(F)c(-c4nnn[nH]4)cc32)CCC1` [Example 68], the IC50 amounted to 0.06 µM.
`CC1(CO)CCN(c2ccc(NC(=O)C(=O)Nc3ccc(-c4cc5cc(F)c(-c6nnn[nH]6)cc5n4C4CCC4)cc3)cc2)CC1` [Example 40]: the IC50 was found to be 0.269 µM.
For the compound `CC1(n2c(-c3ccc(NC(=O)C(=O)Nc4ccc(-c5cnn(C6COC6)c5)cc4)cc3)cc3cc(F)c(-c4nnn[nH]4)cc32)CC1` [Example 6], the IC50 was 0.358 µM.
With `O=C(Nc1ccc(-c2cc3cc(F)c(-c4nnn[nH]4)cc3n2C2CCC2)cc1)C(=O)Nc1ccc(N2CCC3(CC(O)C3)C2)cc1` (stereo not drawn) [Example 89], the IC50 came to 0.095 µM.
Still for that read-out and setting: the value for `O=C(Nc1ccc(-c2cc3cc(F)c(-c4nnn[nH]4)cc3n2C2CCC2)cc1)C(=O)Nc1ccc(N2CCC3(CCC(O)CC3)CC2)cc1` [Example 108] was 0.115 µM; that for `O=C(Nc1ccc(-c2cc3cc(F)c(-c4nnn[nH]4)cc3n2C2CCC2)cc1)C(=O)Nc1ccc(N2CCC3(CCOCC3)CC2)cc1` [Example 76] was 0.173 µM.
The same measure, in the same setting: the value for `O=C(Nc1ccc(-c2cc3cc(F)c(-c4nnn[nH]4)cc3n2C2CCC2)cc1)C(=O)Nc1ccc(N2CCC3(CCOC3)CC2)cc1` [Example 67] was above 10 µM.
The same measure, in the same setting: to `O=C(Nc1ccc(-c2cc3cc(F)c(-c4nnn[nH]4)cc3n2C2CCC2)cc1)C(=O)Nc1ccc(N2CCC3(CCC(O)C3)CC2)cc1` (stereo not drawn) [Example 100] belongs 0.126 µM; to `CC(C)(O)C1CCN(c2ccc(NC(=O)C(=O)Nc3ccc(-c4cc5cc(F)c(-c6nnn[nH]6)cc5n4C4CCC4)cc3)cc2)CC1` [Example 33], above 10 µM.
Consider `O=C(Nc1ccc(-c2cc3cc(F)c(-c4nnn[nH]4)cc3n2C2CCC2)cc1)C(=O)Nc1ccc(N2CCC3(CCOC3)C2)cc1` (stereo not drawn) [Example 61], for which the IC50 amounted to 3.03 µM.
On the same count and under the same terms, to `CC1(O)CC2(CCN(c3ccc(NC(=O)C(=O)Nc4ccc(-c5cc6cc(F)c(-c7nnn[nH]7)cc6n5C5CCC5)cc4)cc3)CC2)C1` [Example 94] belongs 0.237 µM.

Still in this test, the particulars now being: relative to 11a-1 (5.13 µM).
With `CC1(n2c(-c3ccc(NC(=O)C(=O)Nc4ccc(N5CCC6(CCOC6)CC5)cc4)cc3)cc3cc(F)c(-c4nnn[nH]4)cc32)CCC1` [Example 68], the “IC50 against MV4-11 cells, fold lower than 11a-1” value turned out to be 85 fold.

Another test relates to MeWo. Briefly: CellTiter-Glo cell proliferation inhibition, MeWo. Type of test: cell-based, human. As to conditions: Homo sapiens, MeWo, 72 h, MeWo cells, CellTiter-Glo. On the procedure:
as §1
Using essentially the same experimental materials, MeWo cells (ATCC, catalog #HTB-65) were treated similarly: when thawing the cells, the cryovial was rapidly shaken in a 37 °C water bath to thaw the cells within 1 minute. The thawed cell suspension was mixed with MEM/EBSS culture medium containing 10% FBS (HyClone, catalog #SH30024.01), centrifuged at 1000 rpm for 5 minutes, and the supernatant was discarded. The cell pellet was resuspended in 5 mL of complete culture medium (MEM/EBSS medium containing 10% FBS), placed in a cell culture flask with 25 cm^2 of bottom area, and cultured in a cell culture incubator at 37 °C, 95% humidity, and 5% CO2. Cell passaging was performed when the cell confluence reached approximately 80%. During cell passaging, the old culture medium was discarded, the cells were washed once with DPBS, and 1 mL of trypsin was added to digest the cells. When the cells dispersed into single cells and detached from the bottom of the cell culture flask, 3 mL of new complete culture medium was added to stop the digestion. After thoroughly mixing the cell suspension, 1/5 of the cell suspension was retained, 5 mL of new complete culture medium was added, and after thorough mixing, the cells were placed in a cell culture flask for further culture. Cell plating was performed when the cell confluence again reached approximately 80%. During cell plating, following the cell passaging method, 1/5 of the cell suspension was retained for further culture, and the remaining 4/5 of the cell suspension was placed in a 15 mL centrifuge tube. Cell viability was determined using the trypan blue exclusion method to ensure that cell viability was above 90%. A cell suspension with a density of 2.22 × 10^4 cells/mL was prepared using MEM/EBSS culture medium containing 5% FBS. 90 µL of the cell suspension was added to a 96-well cell culture plate, resulting in a cell density of 2000 viable cells/well in the cell culture plate. A control group without cells and without compounds, containing only complete culture medium (i.e., culture medium control), and a control group without compounds but containing cells (i.e., cell control) were set up. The cell plate was cultured overnight in the cell culture incubator. First, a 10 mM stock solution of the compound (Example compound and positive control compound 11a-1) in DMSO was serially diluted with DMSO at a 3-fold dilution, down to the 9th concentration. A 10th concentration containing only DMSO (without the compound) was also prepared as a control. Then, the DMSO solutions containing different concentrations of the compound were diluted 100-fold with complete culture medium, resulting in a 1% DMSO concentration in each solution. Finally, 10 µL of each solution was added to the corresponding wells of the cell culture plate, resulting in a starting compound concentration of 10 µM, with a 3-fold dilution between adjacent concentrations, and a 0.1% DMSO concentration in the cell culture plate. The cell plates were then incubated in a cell culture incubator for 72 hours.
For endpoint detection, CellTiter-Glo reagent (Promega, catalog number #G7573, CellTiter-Glo® Luminescent Cell Viability Assay Kit) was melt and each cell plate was moved to room temperature for equilibration for 30 minutes. 75 µL (KYSE520 cells) or 50 µL (MeWo cells and MV 4-11 cells) of CellTiter-Glo was added to each well of the corresponding cell plate. The plates were shaken on a track-mounted shaker for 2 minutes to fully lyse the cells. The cell plates were kept at room temperature for 8 minutes to stabilize the luminescence signal. […]
For `O=C(Nc1ccc(-c2cc3cc(F)c(-c4nnn[nH]4)cc3n2C2CCC2)cc1)C(=O)Nc1ccc(N2CCC(C3COC3)CC2)cc1` [Example 20], the IC50 turned out to be 0.042 µM.
Same read-out and setting: the value for `CC1(n2c(-c3ccc(NC(=O)C(=O)Nc4ccc(N5CCC6(CCOC6)CC5)cc4)cc3)cc3cc(F)c(-c4nnn[nH]4)cc32)CCC1` [Example 68] was 0.06 µM; that for `CC1(CO)CCN(c2ccc(NC(=O)C(=O)Nc3ccc(-c4cc5cc(F)c(-c6nnn[nH]6)cc5n4C4CCC4)cc3)cc2)CC1` [Example 40] was 0.073 µM; that for `CC1(n2c(-c3ccc(NC(=O)C(=O)Nc4ccc(-c5cnn(C6COC6)c5)cc4)cc3)cc3cc(F)c(-c4nnn[nH]4)cc32)CC1` [Example 6] was 0.113 µM.
On the same count and under the same terms, to `O=C(Nc1ccc(-c2cc3cc(F)c(-c4nnn[nH]4)cc3n2C2CCC2)cc1)C(=O)Nc1ccc(N2CCC3(CC(O)C3)C2)cc1` (stereo not drawn) [Example 89] belongs 0.036 µM; to `O=C(Nc1ccc(-c2cc3cc(F)c(-c4nnn[nH]4)cc3n2C2CCC2)cc1)C(=O)Nc1ccc(N2CCC3(CCC(O)CC3)CC2)cc1` [Example 108], 0.034 µM.
`O=C(Nc1ccc(-c2cc3cc(F)c(-c4nnn[nH]4)cc3n2C2CCC2)cc1)C(=O)Nc1ccc(N2CCC3(CCOCC3)CC2)cc1` [Example 76]: 0.041 µM corresponded to half-maximal inhibition (IC50).
As for `O=C(Nc1ccc(-c2cc3cc(F)c(-c4nnn[nH]4)cc3n2C2CCC2)cc1)C(=O)Nc1ccc(N2CCC3(CCOC3)CC2)cc1` [Example 67], half-maximal inhibition (IC50) required 0.038 µM.
As for `O=C(Nc1ccc(-c2cc3cc(F)c(-c4nnn[nH]4)cc3n2C2CCC2)cc1)C(=O)Nc1ccc(N2CCC3(CCC(O)C3)CC2)cc1` (stereo not drawn) [Example 100], the IC50 is 0.038 µM.
The same measure, in the same setting: the value for `CC(C)(O)C1CCN(c2ccc(NC(=O)C(=O)Nc3ccc(-c4cc5cc(F)c(-c6nnn[nH]6)cc5n4C4CCC4)cc3)cc2)CC1` [Example 33] was 0.117 µM; that for `O=C(Nc1ccc(-c2cc3cc(F)c(-c4nnn[nH]4)cc3n2C2CCC2)cc1)C(=O)Nc1ccc(N2CCC3(CCOC3)C2)cc1` (stereo not drawn) [Example 61] was 0.115 µM; that for `CC1(O)CC2(CCN(c3ccc(NC(=O)C(=O)Nc4ccc(-c5cc6cc(F)c(-c7nnn[nH]7)cc6n5C5CCC5)cc4)cc3)CC2)C1` [Example 94] was 0.041 µM.

Staying with this test, now noted: MeWo cells, 72 hours, CellTiter-Glo.
The compound `CC1(n2c(-c3ccc(NC(=O)C(=O)Nc4ccc(N5CCC6(CCOC6)CC5)cc4)cc3)cc3cc(F)c(-c4nnn[nH]4)cc32)CCC1` [Example 68] displayed an IC50 of 0.031 µM.

The test is the same for the next values; noted with them: relative to 11a-1 (3.10 µM).
`CC1(n2c(-c3ccc(NC(=O)C(=O)Nc4ccc(N5CCC6(CCOC6)CC5)cc4)cc3)cc3cc(F)c(-c4nnn[nH]4)cc32)CCC1` [Example 68]: the “IC50 against Mewo cells, fold lower than 11a-1” value is 100 fold.
